Measurements as given in PubChem BioAssay (NCI).
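Step 1: Grow cells in 96-well plates. Step 2: Expose to compound for 48 hours at 5 concentrations. Step 3: Interpolate endpoints linearly; if unreached, use highest concentration. Here, GI50 denotes the concentration required for 50% inhibition of growth. Definition used: TGI = concentration required for complete inhibition of growth.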

Tests used:
Test in all cases: NCI tumour cell line growth inhibition, 48 h
ACHN renal = test system: ACHN renal
COLO 205 colon = test system: COLO 205 colon
MALME-3M melanoma = test system: MALME-3M melanoma
SF-539 CNS = test system: SF-539 CNS
NCI-H23 lung = test system: NCI-H23 lung
SF-295 CNS = test system: SF-295 CNS
DMS 114 small cell lung = test system: DMS 114 small cell lung
RXF 393 renal = test system: RXF 393 renal
RPMI-8226 leukemia = test system: RPMI-8226 leukemia
HCT-116 colon = test system: HCT-116 colon
HOP-62 NSCLC = test system: HOP-62 NSCLC
HCC-2998 colon = test system: HCC-2998 colon
CCRF-CEM leukemia = test system: CCRF-CEM leukemia
OVCAR-4 ovarian = test system: OVCAR-4 ovarian
UACC-257 melanoma = test system: UACC-257 melanoma
SK-MEL-28 melanoma = test system: SK-MEL-28 melanoma
OVCAR-5 ovarian = test system: OVCAR-5 ovarian
MOLT-4 leukemia = test system: MOLT-4 leukemia
LOX IMVI melanoma = test system: LOX IMVI melanoma
786-0 renal = test system: 786-0 renal
SN12C renal = test system: SN12C renal
EKVX NSCLC = test system: EKVX NSCLC
HOP-92 NSCLC = test system: HOP-92 NSCLC
UACC-62 melanoma = test system: UACC-62 melanoma
CAKI-1 renal = test system: CAKI-1 renal
NCI-H460 lung = test system: NCI-H460 lung
SR leukemia = test system: SR leukemia
M19-MEL melanoma = test system: M19-MEL melanoma
M14 melanoma = test system: M14 melanoma
IGROV1 ovarian = test system: IGROV1 ovarian
SK-MEL-5 melanoma = test system: SK-MEL-5 melanoma
KM20L2 colon = test system: KM20L2 colon
HT29 colon = test system: HT29 colon
A549 NSCLC = test system: A549 NSCLC
SNB-75 CNS = test system: SNB-75 CNS
SW-620 colon = test system: SW-620 colon
U251 CNS = test system: U251 CNS
HCT-15 colon = test system: HCT-15 colon
HL-60(TB) leukemia = test system: HL-60(TB) leukemia
LXFL 529 NSCLC = test system: LXFL 529 NSCLC
UO-31 renal = test system: UO-31 renal
A498 renal = test system: A498 renal
SNB-19 CNS = test system: SNB-19 CNS
OVCAR-3 ovarian = test system: OVCAR-3 ovarian
OVCAR-8 ovarian = test system: OVCAR-8 ovarian
NCI-H226 lung = test system: NCI-H226 lung
KM12 colon = test system: KM12 colon
SF-268 CNS = test system: SF-268 CNS
HOP-18 NSCLC = test system: HOP-18 NSCLC
K-562 leukemia = test system: K-562 leukemia
SK-OV-3 ovarian = test system: SK-OV-3 ovarian
DLD-1 colon = test system: DLD-1 colon
NCI-H522 lung = test system: NCI-H522 lung
TK-10 renal = test system: TK-10 renal

C[CH2][Ge]([CH2]C)([CH2]C)[O]C(=O)C([O][Ge]([CH2]C)([CH2]C)[CH2]C)c1ccccc1 (configuration not stated)
GI50 (ACHN renal): 15 µM | TGI (ACHN renal): 51.3 µM | GI50 (COLO 205 colon): 22.1 µM | TGI (COLO 205 colon): 55.7 µM | GI50 (MALME-3M melanoma): 16.8 µM | TGI (MALME-3M melanoma): > 100 µM | GI50 (SF-539 CNS): 17.1 µM | TGI (SF-539 CNS): 40.5 µM | GI50 (NCI-H23 lung): 10.1 µM | TGI (NCI-H23 lung): 44.3 µM | GI50 (SF-295 CNS): 14.5 µM | TGI (SF-295 CNS): 41 µM | GI50 (DMS 114 small cell lung): 5.84 µM | TGI (DMS 114 small cell lung): 31.6 µM | TGI (RXF 393 renal): 16.1 µM | GI50 (RPMI-8226 leukemia): 11.2 µM | TGI (RPMI-8226 leukemia): > 100 µM | GI50 (HCT-116 colon): 13.9 µM | TGI (HCT-116 colon): 30.2 µM | GI50 (HOP-62 NSCLC): 19.5 µM | TGI (HOP-62 NSCLC): 42.8 µM | GI50 (HCC-2998 colon): 19.2 µM | TGI (HCC-2998 colon): 38.5 µM | GI50 (CCRF-CEM leukemia): 20.6 µM | TGI (CCRF-CEM leukemia): > 100 µM | GI50 (OVCAR-4 ovarian): 6.36 µM | TGI (OVCAR-4 ovarian): > 100 µM | GI50 (UACC-257 melanoma): 15.2 µM | TGI (UACC-257 melanoma): 58.4 µM | GI50 (SK-MEL-28 melanoma): 24.6 µM | TGI (SK-MEL-28 melanoma): > 100 µM | GI50 (OVCAR-5 ovarian): 16.3 µM | TGI (OVCAR-5 ovarian): 74.1 µM | GI50 (MOLT-4 leukemia): 23.8 µM | TGI (MOLT-4 leukemia): > 100 µM | GI50 (LOX IMVI melanoma): 12 µM | TGI (LOX IMVI melanoma): 24.5 µM | GI50 (786-0 renal): 22.4 µM | TGI (786-0 renal): 74.3 µM | GI50 (SN12C renal): 18.2 µM | TGI (SN12C renal): 82.8 µM | GI50 (EKVX NSCLC): 9.4 µM | TGI (EKVX NSCLC): 75.1 µM | GI50 (HOP-92 NSCLC): 4.32 µM | TGI (HOP-92 NSCLC): 45.9 µM | GI50 (UACC-62 melanoma): 14.5 µM | TGI (UACC-62 melanoma): 30.7 µM | GI50 (CAKI-1 renal): 19.2 µM | TGI (CAKI-1 renal): 44.9 µM | GI50 (NCI-H460 lung): 16.3 µM | TGI (NCI-H460 lung): > 100 µM | GI50 (SR leukemia): 14.5 µM | TGI (SR leukemia): 75.4 µM | GI50 (M19-MEL melanoma): 16.9 µM | TGI (M19-MEL melanoma): 42.9 µM | GI50 (M14 melanoma): 17.1 µM | TGI (M14 melanoma): 44.2 µM | GI50 (IGROV1 ovarian): 29.1 µM | TGI (IGROV1 ovarian): > 100 µM | GI50 (SK-MEL-5 melanoma): 11.8 µM | TGI (SK-MEL-5 melanoma): 26.8 µM | GI50 (KM20L2 colon): 17 µM | TGI (KM20L2 colon): 42.8 µM | GI50 (HT29 colon): 16.4 µM | TGI (HT29 colon): 46.4 µM | GI50 (A549 NSCLC): 12.7 µM | TGI (A549 NSCLC): 56.4 µM | GI50 (SNB-75 CNS): 18.3 µM | TGI (SNB-75 CNS): 62.7 µM | GI50 (SW-620 colon): 18.9 µM | TGI (SW-620 colon): 42.2 µM | GI50 (U251 CNS): 17.2 µM | TGI (U251 CNS): 41.4 µM | GI50 (HCT-15 colon): 14 µM | TGI (HCT-15 colon): 30 µM | GI50 (HL-60(TB) leukemia): 14.7 µM | TGI (HL-60(TB) leukemia): 38.9 µM | GI50 (LXFL 529 NSCLC): 9.67 µM | TGI (LXFL 529 NSCLC): 44.9 µM | GI50 (UO-31 renal): 13 µM | TGI (UO-31 renal): 28.7 µM | GI50 (A498 renal): 19.2 µM | TGI (A498 renal): 67.5 µM | GI50 (SNB-19 CNS): 32.5 µM | TGI (SNB-19 CNS): 96.1 µM | GI50 (OVCAR-3 ovarian): 16.2 µM | TGI (OVCAR-3 ovarian): 37.3 µM | GI50 (OVCAR-8 ovarian): 18.2 µM | TGI (OVCAR-8 ovarian): 97.9 µM | GI50 (NCI-H226 lung): 25.7 µM | TGI (NCI-H226 lung): 88 µM | GI50 (KM12 colon): 11.9 µM | TGI (KM12 colon): 26.1 µM | GI50 (SF-268 CNS): 25.8 µM | TGI (SF-268 CNS): > 100 µM | GI50 (HOP-18 NSCLC): 26.7 µM | TGI (HOP-18 NSCLC): 59 µM | GI50 (K-562 leukemia): 14.3 µM | TGI (K-562 leukemia): 46.1 µM | GI50 (SK-OV-3 ovarian): 11.1 µM | TGI (SK-OV-3 ovarian): 31.7 µM | GI50 (DLD-1 colon): 20.3 µM | TGI (DLD-1 colon): > 100 µM | GI50 (NCI-H522 lung): 11 µM | TGI (NCI-H522 lung): 27.3 µM | GI50 (TK-10 renal): 47.6 µM | TGI (TK-10 renal): > 100 µM
